ChEMBL document CHEMBL1201862, “PubChem BioAssay data set” (2004)
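Compound exposure: 48 hours, 5 concentrations, 96-well plates. GI50 = concentration required for 50% inhibition of growth.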 Calls of active or inactive are those of the source. Cut-off read from the data, not from the text of the source: active = GI50 up to about 1.1 µM and inactive = higher.

What was measured:
Assay in all cases: growth of human tumour cells (NCI), 48 h
MDA-MB-435 = system: MDA-MB-435
OVCAR-4 = system: OVCAR-4
PC-3 = system: PC-3
SK-OV-3 = system: SK-OV-3
SK-MEL-28 = system: SK-MEL-28
BT-549 = system: BT-549
MDA-N = system: MDA-N
OVCAR-3 = system: OVCAR-3
SNB-19 = system: SNB-19
MCF7 = system: MCF7
UACC-62 = system: UACC-62
NCI-H23 = system: NCI-H23
U-251 = system: U-251
COLO 205 = system: COLO 205
Hs-578T = system: Hs-578T
SNB-75 = system: SNB-75
UACC-257 = system: UACC-257
IGROV-1 = system: IGROV-1
HCT-116 = system: HCT-116
NCI-H460 = system: NCI-H460
RPMI-8226 = system: RPMI-8226
MDA-MB-231 = system: MDA-MB-231
TK-10 = system: TK-10
SF-539 = system: SF-539
MOLT-4 = system: MOLT-4
NCI-H522 = system: NCI-H522
NCI-H226 = system: NCI-H226
T47D = system: T47D
SF-268 = system: SF-268
HL-60 = system: HL-60
CCRF-CEM = system: CCRF-CEM
HT-29 = system: HT-29
KM12 = system: KM12
RXF 393 = system: RXF 393
SW-620 = system: SW-620
NCI/ADR-RES = system: NCI/ADR-RES
OVCAR-8 = system: OVCAR-8
OVCAR-5 = system: OVCAR-5
HOP-92 = system: HOP-92
Malme-3M = system: Malme-3M
M14 = system: M14
SK-MEL-5 = system: SK-MEL-5
A549 = system: A549
SR = system: SR
SK-MEL-2 = system: SK-MEL-2
SN12C = system: SN12C
HCC 2998 = system: HCC 2998
SF-295 = system: SF-295
786-0 = system: 786-0
K562 = system: K562
EKVX = system: EKVX
CAKI-1 = system: CAKI-1
DU-145 = system: DU-145
UO-31 = system: UO-31
HCT-15 = system: HCT-15
ACHN = system: ACHN
A498 = system: A498
HOP-62 = system: HOP-62
LOX IMVI = system: LOX IMVI

COc1cc(C2SCC(=O)N2c2ccc(Cl)cc2)cc(I)c1O (configuration not stated)
GI50 (MDA-MB-435): 1.56 µM (inactive)
GI50 (OVCAR-4): 3.37 µM (inactive)
GI50 (PC-3): > 100 µM (inactive)
GI50 (SK-OV-3): > 100 µM (inactive)
GI50 (SK-MEL-28): 22 µM (inactive)
GI50 (BT-549): 48.8 µM (inactive)
GI50 (MDA-N): 3.37 µM (inactive)
GI50 (OVCAR-3): 33.8 µM (inactive)
GI50 (SNB-19): > 100 µM (inactive)
GI50 (MCF7): 4.75 µM (inactive)
GI50 (UACC-62): 0.305 µM (active)
GI50 (NCI-H23): 25.5 µM (inactive)
GI50 (U-251): > 100 µM (inactive)
GI50 (COLO 205): 2.64 µM (inactive)
GI50 (Hs-578T): 97.1 µM (inactive)
GI50 (SNB-75): > 100 µM (inactive)
GI50 (UACC-257): 11.8 µM (inactive)
GI50 (IGROV-1): > 100 µM (inactive)
GI50 (HCT-116): 18.5 µM (inactive)
GI50 (NCI-H460): 2.74 µM (inactive)
GI50 (RPMI-8226): 5.85 µM (inactive)
GI50 (MDA-MB-231): > 100 µM (inactive)
GI50 (TK-10): > 94.6 µM (inactive)
GI50 (SF-539): > 35.9 µM (inactive)
GI50 (MOLT-4): 21.9 µM (inactive)
GI50 (NCI-H522): 55.8 µM (inactive)
GI50 (NCI-H226): > 90.2 µM (inactive)
GI50 (T47D): 5.45 µM (inactive)
GI50 (SF-268): > 86.7 µM (inactive)
GI50 (HL-60): 15.7 µM (inactive)
GI50 (CCRF-CEM): 46.1 µM (inactive)
GI50 (HT-29): > 100 µM (inactive)
GI50 (KM12): 7.01 µM (inactive)
GI50 (RXF 393): > 100 µM (inactive)
GI50 (SW-620): > 100 µM (inactive)
GI50 (NCI/ADR-RES): > 69 µM (inactive)
GI50 (OVCAR-8): > 100 µM (inactive)
GI50 (OVCAR-5): > 100 µM (inactive)
GI50 (HOP-92): 57 µM (inactive)
GI50 (Malme-3M): > 100 µM (inactive)
GI50 (M14): 4.86 µM (inactive)
GI50 (SK-MEL-5): 6.52 µM (inactive)
GI50 (A549): 46.7 µM (inactive)
GI50 (SR): 3.53 µM (inactive)
GI50 (SK-MEL-2): 23.9 µM (inactive)
GI50 (SN12C): > 100 µM (inactive)
GI50 (HCC 2998): 65.2 µM (inactive)
GI50 (SF-295): 4.72 µM (inactive)
GI50 (786-0): > 100 µM (inactive)
GI50 (K562): 0.501 µM (active)
GI50 (EKVX): 8.13 µM (inactive)
GI50 (CAKI-1): 6.43 µM (inactive)
GI50 (DU-145): > 100 µM (inactive)
GI50 (UO-31): > 100 µM (inactive)

CNC(=O)CCCN(C)C(=O)CCCCC(=O)N(C)C
GI50 (MDA-MB-435): > 56 µM (inactive)
GI50 (OVCAR-4): > 100 µM (inactive)
GI50 (PC-3): > 54.3 µM (inactive)
GI50 (SK-OV-3): > 61.5 µM (inactive)
GI50 (SK-MEL-28): > 54.2 µM (inactive)
GI50 (BT-549): > 62.8 µM (inactive)
GI50 (MDA-N): > 60.8 µM (inactive)
GI50 (OVCAR-3): > 92.3 µM (inactive)
GI50 (SNB-19): > 60.1 µM (inactive)
GI50 (MCF7): > 62.2 µM (inactive)
GI50 (UACC-62): > 57.4 µM (inactive)
GI50 (NCI-H23): > 60.1 µM (inactive)
GI50 (U-251): > 58.2 µM (inactive)
GI50 (COLO 205): > 57.7 µM (inactive)
GI50 (HCT-15): > 60.4 µM
GI50 (Hs-578T): > 56.9 µM (inactive)
GI50 (SNB-75): > 53.8 µM (inactive)
GI50 (UACC-257): > 59.3 µM (inactive)
GI50 (IGROV-1): > 58.7 µM (inactive)
GI50 (HCT-116): > 57.5 µM (inactive)
GI50 (NCI-H460): > 56 µM (inactive)
GI50 (RPMI-8226): > 57.1 µM (inactive)
GI50 (ACHN): > 61.1 µM (inactive)
GI50 (MDA-MB-231): > 37.8 µM (inactive)
GI50 (TK-10): > 56.8 µM (inactive)
GI50 (SF-539): > 59.8 µM (inactive)
GI50 (A498): 34.4 µM (inactive)
GI50 (MOLT-4): 41.6 µM (inactive)
GI50 (HOP-62): > 100 µM (inactive)
GI50 (NCI-H522): > 58.6 µM (inactive)
GI50 (NCI-H226): > 67.8 µM (inactive)
GI50 (T47D): 35 µM (inactive)
GI50 (SF-268): > 60.8 µM (inactive)
GI50 (HL-60): 26.7 µM (inactive)
GI50 (CCRF-CEM): 40.5 µM (inactive)
GI50 (HT-29): > 57.1 µM (inactive)
GI50 (KM12): > 59.7 µM (inactive)
GI50 (RXF 393): > 100 µM (inactive)
GI50 (SW-620): > 59.6 µM (inactive)
GI50 (NCI/ADR-RES): > 59 µM (inactive)
GI50 (OVCAR-8): > 60.8 µM (inactive)
GI50 (OVCAR-5): > 100 µM (inactive)
GI50 (HOP-92): > 60.1 µM (inactive)
GI50 (Malme-3M): 33.5 µM (inactive)
GI50 (M14): > 100 µM (inactive)
GI50 (SK-MEL-5): 36.6 µM (inactive)
GI50 (A549): > 57.1 µM (inactive)
GI50 (SK-MEL-2): > 50.9 µM (inactive)
GI50 (SN12C): > 61.1 µM (inactive)
GI50 (HCC 2998): > 51.1 µM (inactive)
GI50 (SF-295): > 59.2 µM (inactive)
GI50 (786-0): > 55.3 µM (inactive)
GI50 (LOX IMVI): > 57.5 µM (inactive)
GI50 (K562): > 55.2 µM (inactive)
GI50 (EKVX): > 57.9 µM (inactive)
GI50 (CAKI-1): > 37.6 µM (inactive)
GI50 (DU-145): > 58.5 µM (inactive)
GI50 (UO-31): > 61 µM (inactive)
